In patent publication US5872118A, “Bicyclic amide derivatives and their use as muscle relaxants” (Glaxo Wellcome Inc., priority 1993, dated 1999):
Where two headings read alike, the source gives them in different places.

Columns and labels:
[1] = test system: morphine-induced Straub tail; test: Straub tail test (central muscle relaxant activity); format: in vivo; settings: Mus musculus, 1 h; mice, oral gavage 60 min prior to scoring; dose preventing Straub tail in 50% of mice; read-out: Straub Tail p.o. ED50
Description: Central muscle relaxant activity of compounds of formula (I) was determined using a Straub tail test based on that described by K. O. Ellis and J. F. Carpenter, Neuropharrnacol, 13, 211 (1974).
The Straub tail test result is reported as an ED50 in mg/kg. The ED50 is defined as the dose of compound administered, which prevents Straub tail in 50% of mice. The compound is administered by oral gavage 60 min. prior to scoring.
(§1) Antagonism of morphine-induced Straub tail reflects central muscle relaxant efficacy while failure in the rotorod test reflects sedation and incoordination. Determination of the ratio of rotorod failure to antagonism of morphine-induced Straub tail is a means of assessing side effect liability of central muscle relaxants (G. D. Novak, Drug Dev. Res., 2, 383 (1982).

[2] = mouse rotorod test (sedation and incoordination); settings: in vivo, po; for selectivity ratio: ratio of rotorod ED50 to Straub tail ED50, p.o.
Description: The side effect potential of these compounds was determined using the mouse rotorod test as described by G. D. Novak and J. M. Zwolshei, J.Pharmacological. Methods, 10, 175 (1983). Rotorod result is reported as ED50 in mg/kg. The ED50 is the dose which causes 50% of the animals to fail to maintain position on a cylinder rotating at 11 r.p.m.
as §1

[3] = test system: carrageenan-induced cell accumulation and edema formation within the rat pleural cavity; test: carrageenan pleurisy assay (anti-inflammatory activity); format: in vivo, rat (Lewis male); settings: po, fasted rats, 0.5 hr before carrageenan, 4 hr
Description: The rats used in these experiments were Lewis males, weighing 160-180 g, assigned to groups consisting of 5 animals. Test compounds were given to fasted rats by oral gavage 0.5 hr prior to intrapleural injection of 50 mg carrageenan. After 4 hr, the pleural exudate was collected and the edema volume and cell number were determined. ED50 values were estimated by linear regression analysis, and represent the doses at which a given drug produced 50% inhibition of carrageenan-induced cell accumulation and edema formation within the rat pleural cavity.

[4] = single dose oral toxicity; format: in vivo, male CD-1 mice; settings: mouse, in vivo; single oral gavage, non-fasted male CD-1 mice, seven days; read-out: maximum tolerated dose
Description: (§2) Single doses (15, 45, 100 or 250 mg/kg) were administered by oral gavage to groups of four non-fasted male CD-1 mice (Charles River).
(§3) Single doses (5, 15, 40, 100, 250, 500 or 1000 mg/kg) were administered by oral gavage to groups of four non-fasted male CD-1 mice (Charles River).

CD-1 mice = test: single dose oral toxicity; format: in vivo, male CD-1 mice; settings: within the seven days post dosing, single oral gavage, male CD-1 mice
Description: as §2, §3

[5] = test system: established adjuvant-induced polyarthritis; test: established adjuvant-induced polyarthritis; format: in vivo, rat (female Lewis); settings: 50 mg/kg b.i.d.
Description: The procedures for this test have been described in detail by R. Vinegar, J. F. Truax, J. L. Selph, A. Lea, and P. R. Johnston (J. Immunopharmacol. 1:497-520, 1979). The rats used in these studies were female Lewis rats whose starting weight was 190±10 g. Arthritic rats were assigned to treatment groups consisting of six animals each. Fed rats were dosed by oral gavage starting on day 21 post adjuvant injection; therapy was continued until day 28. The incidence and severity of arthritic lesions were assessed using a modification of the scoring procedure described by H. L. F. Currey and M. Ziff (J. Exp. Med. 121:185-203, 1968). Briefly, the bilateral joints were scored for erythema, edema, and ankylosis as outlined below:
The maximal possible score per rat was 40. Experimental results were analyzed by one-way ANOVA, followed by post hoc comparisons of treatment effects versus untreated arthritic control using the Newman-Keuls test. The percent inhibition of each drug-treated group was calculated from the mean relative to the arthritic control.

[6] = test system: trypsin-induced rat hind limb hyperalgesia; test: trypsin-induced rat hind limb hyperalgesia assay (mild analgesia); format: in vivo, rat (Lewis male); settings: po, fasted rats, 0.5 hours prior to trypsin, 50% inhibition of latency response
Description: The rats used in these studies were Lewis male, weighing 160-180 g. and assigned to groups consisting of 5-6 animals. Test compounds were given to fasted rats by oral gavage 0.5 hours prior to the subplantar injection of […] trypsin in one hind limb. One hour later the rats were evaluated for hyperalgesia using an F-shaped mechanical force clamp on the injected hind limb metatarsal area. Latency (seconds) to the algesic response (vocalization or flight) was determined, with 4 seconds being the maximum latency allowed. ED50 values were estimated by linear regression analysis and represent the dose at which a given drug extended the latency response to produce 50% inhibition using the formula: (4 sec.-Control Latency)-(4 sec.-Test Latency)/4 sec.-Control Latency×100.

[7] = test system: algesic response to mechanical force clamp on the phalanges; test: phalanges algesic assay (strong analgesia); format: in vivo, rat (Lewis male); settings: Rattus norvegicus, po, 1 h; p.o., fasted rats, one hour after dosing; 50% inhibition of latency response
Description: The rats used in these studies were Lewis male weighing 160-180 g and assigned to groups of 5-6 animals. The phalanges algesic assay is an algesic test (no hyperalgesia) in which test compounds were given to fasted rats by oral gavage. One hour later an F-shaped mechanical force clamp was applied to the phalanges of one hind limb which initiated an algesic response(vocalization or flight). Latency (seconds) to the algesic response was determined with 3 seconds maximum allowed time. ED50 values were estimated by linear regression analysis and represent the dose at which a given compound extended the latency response to produce 50% inhibition using the formula: (3 sec.-Control Latency)-(3 sec.-Test Latency)/3 sec.-Control Latency×100.

[8] = test system: maximal electroshock-induced convulsions; test: protection against maximal electroshock-induced convulsions; format: in vivo; settings: ip; rat, i.p.; prevention of hind limb extension in 50% of animals; read-out: ED50 MES (maximal electroshock)
Description: Anticonvulsant activity of compounds of formula (I) was determined using a method described by Mehta et al., J.Med.Chem., 24, 465 (1981).
The anticonvulsant activity is reported as an ED50 in mg/kg. The ED50 for protection against maximal electroshock-induced convulsions was the dose which prevented hind limb extension in 50% of the animals. The ED50 for protection against Metrazol-induced convulsions was the dose which prevented convulsions in 50% of the animals.

punished responding = test: anxiolytic activity, punished responding (Geller and Seifter); format: in vivo; settings: Rattus norvegicus, po; rats, p.o.; lowest dose producing significant increase in punished responding; read-out: MED (Minimal Effective Dose)
Description: Anxiolytic activity of compounds of formula (I) was measured using the method of Geller and Seifter, J.Psychopharmacolgia, 1, 482 (1960) as modified by Pollard and Howard, Psychopharmacology, 62, 117 (1979). Clinically efficacious anxiolytics increase punished responding. The anxiolytic activity of the compound is reported as the lowest dose necessary to produce a significant increase in punished responding in rats(MED).

[9] = 50% inhibition of cell accumulation, read-out: ED50 Cells
[10] = 50% inhibition of edema formation, read-out: ED50 Edema

| SMILES | ED50 [1] | TD50 [2] | selectivity ratio [2] | ED50 [3, 9] | ED50 [3, 10] | MTD at 168 h [4] | deaths (CD-1 mice) | arthritic scores ([5]; days 22, 25, and 27, oral gavage) | Spleen weight ([5]; postmortem on day 27) | plasma fibrinogen ([5]; postmortem on day 27) | ED50 [6] | ED50 [7] | ED50 [8] | minimal effective dose (punished responding) |
| --- | --- | --- | --- | --- | --- | --- | --- | --- | --- | --- | --- | --- | --- | --- |
| NC(=O)/C=C1\CCc2ccc(F)cc21 [Example 1, (E)-2-(6-Fluoro-1-indanylidene)acetamide] | 51 mg/kg | 88 mg/kg | 1.7 | 21 mg/kg | 20 mg/kg | > 250 mg/kg | no deaths | – | – | – | – | – | – | – |
| NC(=O)/C=C1\CCc2c(F)cc(F)cc21 [Example 5, (E)-2-(4,6-difluoro-1-indanylidene)acetamide] | 54 mg/kg | 79 mg/kg | 1.5 | 16 mg/kg | 12 mg/kg | > 1000 mg/kg | no deaths | significantly (p<0.01) lowered | significantly reduced (p<0.01) | significantly reduced (p<0.01) | 4 mg/kg | 22 mg/kg | – | – |
| O=C(/C=C1\CCCc2ccc(F)cc21)NC1CC1 [Example 13, (E)-N-Cyclopropyl-2-(7-fluoro-1,2,3,4-tetrahydro-1-naphthylidene)acetamide] | – | – | – | – | – | – | – | – | – | – | – | – | 25 mg/kg | 3.13 mg/kg |
